Key:
PI3K and MAPK pathways = assay: KAYAK profiling of cancer cell lines with or without gefitinib: PI3K and MAPK activity; assay type: cell-based, human
Description: MCF7 and MBA-MB231 cells were maintained in DMEM supplemented with 10% FBS. Sum159 cells were maintained in Ham's F12 media supplemented with 5% FBS, 5μg/ml hydrocortisone. MCF10A, MCF10A, ErbB2, MCF10A/IGFR, and MCF10A/H-Ras^G12V cells were generously provided by J. Brugge (Debnath et al. 2002 Cell 111: 29-40; Irie et al. 2005 J Cell Biol 171: 1023-1034; Reginato et al. 2003 Nat Cell Biol 5: 733-740) and were maintained in 50/50 DMEM/F12 media supplemented with 5% horse serum, 20 ng/ml EGF, 100 ng/ml cholera toxin, 10 μg/ml insulin, and 500 ng/ml hydrocortisone. Breast cancer cells were treated also with 1 μM of gefitinib (LC laboratories) for 24 h before lysis and KAYAK analysis. The mutation data was obtained from Wellcome Trust Sanger Institute Cancer Genome Project Web site (Hollestele et al. 2007 Mol Cancer Res 5:195-201).
(§1) Peptides were synthesized, purified and quantified as described in Yu et al. 2009 Proc Natl Acad Sci USA 106: 11606-11611, hereby incorporated by reference herein in its entirety. Each substrate peptide (250 pmol) was mixed to a final concentration of 5 μM in the 50 μL reaction mixture. Alternatively, reactions were performed using 6 μg cell lysate aliquotes mixed to a final volume of 20 μl. Cell lysate or other kinase source was added to the substrate mixture in 25 mM Tris-Cl, pH 7.5, containing 5 mM ATP, 7.5 mM MgCl2, 0.2 mM EGTA, 7.5 mM β-glycerophosphate, 0.1 mM Na3VO4, and 0.1 mM DTT. The reaction was incubated at 25° C. for 60 min and then terminated by the addition of 100 μl of 1% trifluoroacetic acid (TFA) containing a known amount of an internal standard (typically 20 pmol). Alternatively, the reaction was incubated at 20° C. for 45 min before termination with TFA.
In tumors, activating mutations are often found in core signaling pathways (McLendon et al. 2008 Nature 455: 1061-1068). […]. The cell lines were chosen to represent the highly heterogeneous nature of breast cancer.

HeLa cell lysates = assay: KAYAK in vitro kinase assay, lysates of asynchronous, G1/S- or G2/M-arrested HeLa cells; assay type: biochemical, human; conditions: for G2/M: changed phosphorylation: G2/M phase compared to asynchronously growing HeLa cells; for G1/S: changed phosphorylation: G1/S phase compared to asynchronously growing HeLa cells
Description: For cell cycle examples, HeLa cells were synchronized by double thymidine block for G1/S-arrest and by 0.2 μg/ml nocodazole for G2/M-arrest as described (Dephoure et al. 2008 Proc Natl Acad Sci USA 105: 10762-10767). Synchronization was confirmed by flow cytometry.
(§2) For cell lysis, the media were removed, and cells were washed with ice-cold phosphate-buffered saline (PBS) and lysed with ice-cold lysis buffer (10 mM K2HPO4 pH 7.5, 1 mM EDTA, 10 mM MgCl2, 50 mM β-glycerophosphate, 5 mM EGTA, 0.5% Nonidet P-40, 0.1% Brij 35, 0.1% deoxycholic acid, 1mM sodium orthovanadate, 1mM phenylmethyl-sulfonyl fluoride, 5 μg/ml leupeptin and 5 μg/ml pepstatin A). Lysates were centrifuged at 10,000 rpm for 10 min to remove cell debris, and clear supernatant was used for immunoblotting and in vitro kinase assays. Protein concentration was determined by Bradford assay (Biorad, Hercules, Calif.).
as §1
(§3) Forty-five individual in vitro kinase reaction mixtures were combined and desalted by using Sep-Pak C18 cartridge (Waters, Milford, Mass.). Phosphopeptides were enriched by immobilized metal ion chromatography (IMAC) with 20 μl of beads (Phos-Select iron affinity gel; Sigma, St. Louis, Mo.) and subsequently desalted by using Empore C18 solid phase extraction disks (3M, St. Paul, Minn.) as described previously.
(§4) Quantitation of the target peptide-internal standard ratios was performed by first constructing the extracted ion chromatogram for the most abundant charge state for each peptide using a ±10 ppm window. Chromatograms were integrated using Qual/Quan browser (Xcalibur 2.0.5, Thermo Fisher, San Jose, Calif.). Since the phosphorylated peptides generated from the in vitro kinase reactions were chemically identical to the internal standards, they were assumed to have the same ionization efficiency. Therefore, the amount of each phosphorylated peptide was calculated by direct ratio to the internal standard level.
(§5) To test substrate suitability in a multiplexed assay, the phosphorylation activities were measured using […] of each substrate peptide, 6 μg lysate, and 5 mM ATP in a plate format. Reactions proceeded for 60 minutes followed by acidification and the addition of isotope-labeled reference peptides. After pooling 45 samples, phosphopeptide enrichment was followed by liquid-chromatography (LC) separation and on-line peptide detection by high-resolution mass spectrometry.
In order to examine target peptides with cell-cycle-dependent phosphorylation, kinase activities in asynchronously growing HeLa cells were profiled and the profiles were compared with those of cells synchronized in G1/S and G2/M phase using a double-thymidine block and nocodazole arrest, respectively (FIG. 3B).

HEK293 cell lysates = assay: KAYAK in vitro kinase assay, individual reactions, lysates of starved, insulin- or EGF-stimulated HEK293 cells; assay type: biochemical, human; conditions: for E: changed phosphorylation in EGF stimulated condition: EGF-stimulated compared to starved HEK293 cells
Description: For stimulation of HEK293 cells or HeLa lines, cells were treated with insulin (100 nM; 10-30 min) EGF (50 ng/ml; 10 min) or phorbol 12-myristate 13-acetate (PMA; 50 or 100 ng/ml; 10 -30 min) at 37° C. for the indicated times after overnight serum-starvation.
as §2, §1, §3, §4, §5
The ability of the peptides to report specific changes in kinase activation after pathway stimulation was examined herein. Lysates from HEK293 cells were collected after insulin or EGF treatment and were compared to their activities in the serum-starved state using the KAYAK approach. Western blot analysis of lysates from cells in which the PI3K and MAPK pathways were activated, as indicated by elevated phospho-Akt and phospho-ERK1/2 levels, respectively, is shown in FIG. 1D. […]

recombinant RSK1 = target: T1, recombinant RSK1 (Homo sapiens, UniProt Q15418); assay: In vitro peptide phosphorylation by purified RSK; assay type: biochemical
T1 construct: 90 kDa ribosomal S6 kinases 1 (RSK1, 1-735); purchased Cell Signaling Technology (Danvers, Mass.)
From the text: Reaction mixture was supplemented with 0.1% BSA. Other conditions were the same as in FIG. 10A.
Purified human active kinases of Akt1 (full length), extracellular signal-regulated kinase 1 (ERK1, 1-379), mitogen-activated protein kinase kinase 1 (MEK1, 1-393), 90 kDa ribosomal S6 kinases 1 (RSK1, 1-735), cAMP-dependent protein kinase (PKA) catalytic subunit-α (PKA Cα, 1-351), protein kinase Cα (PKCα, full length), epidermal growth factor (EGF) receptor (EGFR, 672-1210), platelet-derived growth factor (PDGF) receptor α (PDGFRα, 550-1090), vascular endothelial growth factor (VEGF) receptor 1 (VEGFR1 784-1338), Src (full length), casein kinase 2 (CK2, full length), Aurora A (1-403), AMP-activated protein kinase α1β1γ1 (AMPK α1β1γ1, full length), glycogen synthase kinase-3α (GSK-3α, 1-483) and MAP/microtubule affinity-regulating kinase 1 (MARK 1, full length) were obtained from Cell Signaling Technology (Danvers, Mass.). Cdc2/cyclin B1 (full length) and insulin-like growth factor (IGF)-I receptor (IGFIR, 959-1367) were obtained from Upstate (Temecula, Calif.).
as §1, with “Each substrate peptide (250 pmol) was mixed to a final concentration of 5 μM in the 50 μL reaction mixture.” left out
It was observed that basal phosphorylation of these peptides was not affected by knockdown and likely was the result of remaining RSK isoforms or other basophilic kinases (FIG. 5C).

T1 sequence (Q15418 whole entry): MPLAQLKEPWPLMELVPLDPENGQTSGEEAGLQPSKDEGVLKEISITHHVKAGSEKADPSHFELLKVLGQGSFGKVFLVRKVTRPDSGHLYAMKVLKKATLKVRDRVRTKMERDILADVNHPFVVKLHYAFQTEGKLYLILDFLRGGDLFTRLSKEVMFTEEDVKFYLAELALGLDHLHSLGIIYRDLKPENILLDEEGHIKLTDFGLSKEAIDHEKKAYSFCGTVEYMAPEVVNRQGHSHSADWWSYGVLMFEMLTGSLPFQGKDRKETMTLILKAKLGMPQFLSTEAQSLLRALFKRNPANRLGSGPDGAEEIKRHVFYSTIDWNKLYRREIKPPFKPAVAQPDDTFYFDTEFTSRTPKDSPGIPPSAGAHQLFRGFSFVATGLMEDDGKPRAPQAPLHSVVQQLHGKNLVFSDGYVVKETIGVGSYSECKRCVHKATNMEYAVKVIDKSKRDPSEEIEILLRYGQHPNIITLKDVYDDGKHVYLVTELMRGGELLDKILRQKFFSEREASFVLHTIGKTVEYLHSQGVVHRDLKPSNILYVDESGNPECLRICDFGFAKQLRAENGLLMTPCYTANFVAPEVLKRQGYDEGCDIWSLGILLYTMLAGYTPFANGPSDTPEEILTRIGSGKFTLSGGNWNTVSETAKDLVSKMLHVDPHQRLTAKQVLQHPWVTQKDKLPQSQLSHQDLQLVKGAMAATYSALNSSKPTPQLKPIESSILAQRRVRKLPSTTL

Row | Molecule | G2/M: changed phosphorylation (HeLa cell lysates) | E: changed phosphorylation in EGF stimulated condition (HEK293 cell lysates) | G1/S: changed phosphorylation (HeLa cell lysates) | also measured
1 | COc1cc2ncnc(Nc3ccc(F)c(Cl)c3)c2cc1OCCCN1CCOCC1 [gefitinib] | – | – | – | activation of MAPK after treatment (PI3K and MAPK pathways; HeLa cells, 1 μM): not to be affected; activity in PI3K and MAPK pathway after treatment (PI3K and MAPK pathways; MCF7, 1 μM, 24 h): decreased activity; MAPK activity after treatment (PI3K and MAPK pathways; MCF10A cells overexpressing RasV12, 1 μM, 24 h): gefitinib-resistance; PI3K and MAPK activity after treatment (PI3K and MAPK pathways; MCF10A/ErbB2, 1 μM, 24 h): strongly inhibited; PI3K and MAPK activity after treatment (PI3K and MAPK pathways; MCF10A/IGFR, 1 μM, 24 h): strongly inhibited; MAPK activity after treatment (PI3K and MAPK pathways; MDA-MB231 cells, 1 μM, 24 h): completely refractory; MAPK activity after treatment (PI3K and MAPK pathways; Sum159 cells, 1 μM, 24 h): some sensitivity; PI3K and MAPK activity after treatment (PI3K and MAPK pathways; normal MCF10A cells, 1 μM, 24 h): strongly inhibited
2 | FKNIVTPRTPPFR (The sequence was designed and synthesized) [D10] | ++ (A change of more than +4 and −4 fold is indicated by “++” and “−−”, respectively.) | – | – | –
3 | IPINGSPRTPPFR (The sequence was designed and synthesized) [B4] | ++ (A change of more than +4 and −4 fold is indicated by “++” and “−−”, respectively.) | + (A change of more +2 fold and −2 fold is indicated by “+” and “−”, respectively.) | – | –
4 | IPTGTTPQRKPFR (The sequence was designed and synthesized) [C2] | ++ (A change of more than +4 and −4 fold is indicated by “++” and “−−”, respectively.) | – | – | increase in phosphorylation in G2/M (HeLa cell lysates; G2/M (nocodazole-arrested) HeLa lysate vs asynchronously growing cells): 19 fold
5 | KKKRFSFKKSPFR (The sequence was designed and synthesized) [G10] | – | – | – | conversion of the substrate (HEK293 cell lysates; serum-starved HEK293 lysate, 100 μM peptide, 6 μg lysate, 60 min, highest activity peptide): 18%
6 | LKLSPSPSSRPFR (The sequence was designed and synthesized) [B11] | ++ (A change of more than +4 and −4 fold is indicated by “++” and “−−”, respectively.) | – | + (A change of more +2 fold and −2 fold is indicated by “+” and “−”, respectively.) | –
7 | NKRRGSVPILPFR (The sequence was designed and synthesized) [C11] | – | + (A change of more +2 fold and −2 fold is indicated by “+” and “−”, respectively.) | – | phosphorylation by recombinant RSK1 in vitro (recombinant RSK1): robustly phosphorylate
8 | NLLPLSPEEFPFR (The sequence was designed and synthesized) [D7] | −− (A change of more than +4 and −4 fold is indicated by “++” and “−−”, respectively.) | – | −− (A change of more than +4 and −4 fold is indicated by “++” and “−−”, respectively.) | –
9 | NQDPVSPSLVPFR (The sequence was designed and synthesized) [B5] | − (A change of more +2 fold and −2 fold is indicated by “+” and “−”, respectively.) | – | −− (A change of more than +4 and −4 fold is indicated by “++” and “−−”, respectively.) | –
10 | PKRKVSSAEGPFR (The sequence was designed and synthesized) [B6] | − (A change of more +2 fold and −2 fold is indicated by “+” and “−”, respectively.) | + (A change of more +2 fold and −2 fold is indicated by “+” and “−”, respectively.) | – | increase in phosphorylation after EGF (HEK293 cell lysates; EGF-stimulated vs serum-starved HEK293 lysate): 3 fold; phosphorylation by recombinant RSK1 in vitro (recombinant RSK1): robustly phosphorylate
11 | PSTNSSPVLKPFR (The sequence was designed and synthesized) [A12] | + (A change of more +2 fold and −2 fold is indicated by “+” and “−”, respectively.) | – | – | –
12 | SKRRNSEFEIPFR (The sequence was designed and synthesized) [G5] | – | + (A change of more +2 fold and −2 fold is indicated by “+” and “−”, respectively.) | – | phosphorylation by recombinant RSK1 in vitro (recombinant RSK1): robustly phosphorylate
13 | VKRQSSTPSAPFR (The sequence was designed and synthesized) [B7] | −− (A change of more than +4 and −4 fold is indicated by “++” and “−−”, respectively.) | – | −− (A change of more than +4 and −4 fold is indicated by “++” and “−−”, respectively.) | –

From patent publication US10407712B2, “Methods, compositions and kits for high throughput kinase activity screening using mass spectrometry and stable isotopes” (President and Fellows of Harvard College, priority 2008, dated 2019)
